Assays:
Type in all cases: in vivo, Phaseolus vulgaris
[1] = system: phenylalanine ammonia lyase (PAL) mRNA; test: Northern blot of phenylalanine ammonia lyase (PAL) mRNA in sprayed bean plants
Experimental: FIG. 2 is a northern blot of RNA probed for expression of phenylalanine ammonia lyase (“PAL”). RNA was extracted from 14 day-old red kidney bean plants 24 hours after leaves of the plants were sprayed until wet with one of four treatments. Lane 1: water-only control. Lane 2: treatment with 3,500 ppm of PAA. Lane 3: treatment with 10,000 ppm of PAA. Lane 4: treatment with 3,500 ppm of PAA plus 200 ppm of inducer mixture.
Bean plants were grown and treated in the same manner as in the previous Example, except that a water-only control was run, but not a test of systemic inducer without PAA. Total RNA was extracted and gels were loaded, run, and analyzed following the procedures discussed in previous Example, with the exception that no lane was run containing RNA from plants sprayed with a systemic inducer without an ROS present. Probe for PAL mRNA transcripts was prepared following the procedures set forth in Blee, K. A., and Anderson, A. J. “Defense-related transcript accumulation in Phaseolus vulgaris L. colonized by the arbuscular mycorrhizal fungus Glomus intraradices Schenck & Smith.” Plant Physiol. 110: 675-688 (1996).

[2] = system: hydroxyproline-rich glycoprotein (HYP) RNA; test: Northern blot of hydroxyproline-rich glycoprotein (HYP) RNA in sprayed bean plants
Experimental: FIG. 3 is a northern blot of RNA probed for expression of hydroxyproline-rich glycoproteins (“HPRG” or “HYP”). RNA was extracted from 14 day-old red kidney bean plants 24 hours after leaves of the plants were sprayed until wet with one of five treatments. Lane 1: water-only control. Lane 2: treatment with 3,500 ppm of PAA. Lane 3: treatment with 10,000 ppm of PAA. Lane 4: treatment with 3,500 ppm of PAA plus 200 ppm of inducer mixture. Lane 5: treatment with 10,000 ppm of PAA plus 200 ppm of inducer mixture. Lane 6: treatment with 200 ppm of inducer mixture, without presence of PAA.
Bean plants were grown and treated as in Example 2. Total RNA was extracted and gels were loaded, run, and analyzed following the procedures discussed in Example 2. Probes for HYP were prepared following the procedures set forth in Blee and Anderson, supra.

[3] = system: PR-1a gene RNA expression; test: Northern blot of PR-1a RNA in sprayed red kidney bean plants
Experimental: FIG. 1 is a northern blot of RNA probed for expression of PR-1a protein. RNA was extracted from 14 day-old red kidney bean plants 24 hours after leaves of the plants were sprayed until wet with one of five treatments. Lane 1: treatment with 3,500 ppm of peracetic acid (“PAA”). Lane 2: treatment with 10,000 ppm of PAA. Lane 3: treatment with 3,500 ppm of PAA plus 200 ppm of salicylic acid/humic acid mixture (see Example 1; hereafter “inducer mixture”). Lane 4: treatment with 10,000 ppm of PAA and 200 ppm of inducer mixture. Lane 5: treatment with 200 ppm inducer mixture, without PAA.
Fourteen-day old red kidney bean plants (Phaseolus vulgaris) were sprayed from an overhead boom until the leaves were wet and spray began to run off them. […]
The plants were then left for 24 hours, after which the leaves were subjected to extraction of their total RNA by the procedure described in Logemann, J., et al, “Improved method for the isolation of RNA from plant tissues.” Anal Biochem. 163:16-20 (1987). […] Hybridization was observed and analyzed by chemiluminescent detection of the bound probes using the “Genius System,” (Boehringer Mannheim Corporation, Indianapolis, Ind.), following the manufacturer's directions. […]

In the case of `CC(=O)OO` [peracetic acid], the “mRNA for PAL genes” value ([1]; peracetic acid 3,500 ppm, 24 hours, FIG. 2 lane 2) is reported as “increase in mRNA for PAL genes over that of the water control”, the “mRNA for PAL genes” value ([1]; peracetic acid 10,000 ppm, compared to 3,500 ppm, FIG. 2 lane 3) is reported as “substantial increase” and the “RNA levels from HYP genes” value ([2]; peracetic acid 3,500 ppm, FIG. 3 lane 2) is reported as “increase in RNA levels from HYP genes over that of the water control”. For the same compound, the “RNA levels from HYP genes” value ([2]; peracetic acid 10,000 ppm, compared to 3,500 ppm, FIG. 3 lane 3) was “substantially more hybridizing RNA”, the “PR-1a gene RNA expression” value ([3]; peracetic acid 3,500 ppm, leaves sprayed, RNA after 24 hours, FIG. 1 lane 1) was “increased” and the “PR-1a gene RNA expression” value ([3]; peracetic acid 10,000 ppm, 24 hours, FIG. 1 lane 2) was “higher amounts”.

From US6582961B1, “Methods of protecting plants from pathogens” (priority 1998, dated 2003)
